Measurements: patent US20060229368A1, “MEDICAL APPLICATION OF OXIDIZED MONOTERPENES” (priority 2001, published 2006)

Experiments:
bacteria, yeast or fungi = assay: general statements on activity against bacteria, yeast or fungi; type: cell-based; conditions: enhancer alone
A. niger [1] = assay: agar diffusion-disk technique, halo formation (fungal strains); type: cell-based, Aspergillus niger; conditions: for re-growth around the formulation: A. niger, 96 hours after inhibition; for activity against A. niger: formulation at 0.5%, after 7 days
Procedure: This technique is explained in R. K. Dart, Microbiology for the Analytic Chemist, The Royal Society of Chemists, 1996, which is incorporated herein by reference. […] Anti-bacterial activity was detected by showing a distinguished halo around the disk previously wetted with the formulation. Halo formation was measured with a caliper and biological activity was considered according to size. Details of specific applications and formulations are set forth below. […] SDS indicates Sodium Dodecyl Sulfate. […] Details of specific applications and formulations are set forth below.

A. niger [2] = assay: culture of the fungi A. niger exposed to disk moistened with formulation (glycerol/SDS base); type: cell-based, Aspergillus niger; conditions: under more controlled conditions; 0.5 and 1% formulations
Procedure: Formulations were further tested against a culture of the fungi A. niger. The fungi was exposed to 1% PCO/1% POH, 1% PCO, and 1% POH formulations. All formulations were prepared in a glycerol/SDS base in water.

Compound	activity against bacterial cells (bacteria, yeast or fungi)	effect against bacteria, yeast or fungi (bacteria, yeast or fungi)	re-growth around the formulation (A. niger [1])	activity against A. niger (A. niger [1])	inhibition of growth of A. niger (A. niger [2])
CC(O)CO (stereo not drawn) [propylene glycol]	do not provide activity	no effect			
CCCCCCCCCCCCOS(=O)(=O)[O-].[Na+] [SDS, Sodium Dodecyl Sulfate]	do not provide activity				
C=C(C)[C@@H]1CC=C(CO)CC1 [POH, perillyl alcohol, reference compound]			re-growth	considerable growth	did not perform as aggressively
C=C(C)C1CC=C(C=O)CC1 (stereo not drawn) [PCO, perillyl aldehyde]			no growth	very active	did inhibit growth
